The text below walks through data of PMC5605198, “MELK is not necessary for the proliferation of basal-like breast cancer cells” (eLife, 2017).

Assay [1] concerns MELK−/− MDA-MB-468-FKBP12^F36V-MELK(sg3R) cells. The assay is described as follows: 9-day proliferation assay, crystal violet staining. To be noted: 500 nM, 9 days, two clones. The assay is classed as cell-based. The protocol:
(§1) Four dTAG molecules (7, 13, 36 and 47) that vary in linker length and chemical structure were tested for their efficiency at depleting FKBP12^F36V-MELK(sg3R) (Figure 4A, Figure 4—figure supplement 3).
Figure 4. […] (A) Chemical structure of heterobifunctional dTAG molecule dTAG-47. See also Figure 4—figure supplement 3 for the chemical structures of dTAG-7, dTAG-13 and dTAG-36. (B) Immunoblots for MELK and GAPDH after treatment of dTAG-7, 13, 36, and 47 at indicated concentrations in MELK−/− MDA-MB-468-FKBP12^F36V-MELK(sg3R) cells for 4 hours. See Figure 4—figure supplement 1 for details of the generation of MELK−/− MDA-MB-468-FKBP12^F36V-MELK(sg3R) clones. (C) Same as in 4B, but with treatment at 500 nM and extended treatment times for 14, 24, 48, and 72 hours. (D) Changes in abundance of 7270 proteins (peptide count ≥2) comparing MELK−/− MDA-MB-468-FKBP12^F36V-MELK cells treated with dTAG-7 (250 nM) or DMSO for 1 hour, versus p-value (dTAG-7: triplicate, DMSO: duplicate, limma moderated t-test). See also Figure 4—source datas 1 and 2 for the original and the processed data. (E) Crystal violet staining image showing parental MDA-MB-468 cells and MELK−/− MDA-MB-468-FKBP12^F36V-MELK(sg3R) cells after treatment with DMSO or 500 nM of dTAG-47 for 9 days. […] Raw integrated ion intensities from quantitative multiplexed proteomics. […]

Assay [2] relates to FKBP12^F36V-MELK(sg3R). In words: dTAG-induced degradation, immunoblot. It counts as cell-based. As to conditions: MELK−/− MDA-MB-468-FKBP12^F36V-MELK(sg3R) cells; for duration of sustained degradation of FKBP12^F36V-MELK(sg3R): 500 nM. The protocol: as §1
Figure 4. […] (A) Chemical structure of heterobifunctional dTAG molecule dTAG-47. See also Figure 4—figure supplement 3 for the chemical structures of dTAG-7, dTAG-13 and dTAG-36. (B) Immunoblots for MELK and GAPDH after treatment of dTAG-7, 13, 36, and 47 at indicated concentrations in MELK−/− MDA-MB-468-FKBP12^F36V-MELK(sg3R) cells for 4 hours. See Figure 4—figure supplement 1 for details of the generation of MELK−/− MDA-MB-468-FKBP12^F36V-MELK(sg3R) clones. (C) Same as in 4B, but with treatment at 500 nM and extended treatment times for 14, 24, 48, and 72 hours. (D) Changes in abundance of 7270 proteins (peptide count ≥2) comparing MELK−/− MDA-MB-468-FKBP12^F36V-MELK cells treated with dTAG-7 (250 nM) or DMSO for 1 hour, versus p-value (dTAG-7: triplicate, DMSO: duplicate, limma moderated t-test). See also Figure 4—source datas 1 and 2 for the original and the processed data. (E) Crystal violet staining image showing parental MDA-MB-468 cells and MELK−/− MDA-MB-468-FKBP12^F36V-MELK(sg3R) cells after treatment with DMSO or 500 nM of dTAG-47 for 9 days. Immunoblots showing MELK and GAPDH from a duplicate plate on Day 9 confirmed sustained depletion of FKBP12^F36V-MELK(sg3R). These are representative data from one of two independent experiments. Figure 4—source data 1. Raw integrated ion intensities from quantitative multiplexed proteomics. Figure 4—source data 2. Processed Data and Statistical Analysis by limma (topTable). Figure 4—figure supplement 1. Single clones selected from MDA-MB-468-FKBP12^F36V-MELK(sg3R) cells subject to CRISPR/Cas9-mediated knockout of endogenous MELK. Immunoblots for MELK and GAPDH in single cell clones selected from MDA-MB-468-FKBP12^F36V-MELK(sg3R) transfected with Cas9/sgMELK-3 to knockout endogenous MELK. Clone 1D4 is clone 1 and clone 1A3 is clone 2 in Figure 4. Clone 1D4 was confirmed with heterozygous −1 and +1 indels; clone 1A3 was confirmed with homozygous −1 deletions. [drawing 5] Figure 4—figure supplement 2. […] (A) Immunoblots for MELK, cyclin B1 and GAPDH in asynchronous versus M-phase arrested MDA-MB-468 cells and MDA-MB-468-FKBP12^F36V-MELK(sg3R) cells (clone 1). […] Chemical structures of dTAG molecules. FKBP12^F36V-binding ligands conjugated by variable linkers to thalidomide or pomalidomide, including (A) dTAG-7, (B) dTAG-13 and (C) dTAG-36 are capable of inducing degradation of FKBP12^F36V-tagged proteins of interest. [drawing 7]
Background: In western blotting, separated proteins are transferred to a membrane and probed.

The test system of assay [3] is Flt3. Also noted: method as in Johnson et al., 2015. As to conditions: ref Johnson et al., 2015; cited from earlier work.
Assay [4] relates to ZR-75-1. In words: Cell proliferation assay (CellTiter-Glo). As to conditions: Homo sapiens, ZR-75-1, 72 h, read-out: 3-day antiproliferative IC50.
Assay [5] relates to MDA-MB-468. The assay is described as follows: Cell proliferation assay (CellTiter-Glo). As to conditions: Homo sapiens. A general note: In ATP-based viability assays light output follows the ATP content of the culture.
In assay [6] the test system is T-47D. The assay is described as follows: Cell proliferation assay (CellTiter-Glo). As to conditions: Homo sapiens, T47D.
The test system of assay [7] is HCC70. In words: Cell proliferation assay (CellTiter-Glo). To be noted: Homo sapiens.
Assay [8] has as its system MCF7. In words: Cell proliferation assay (CellTiter-Glo). As to conditions: Homo sapiens.
For assay [9], the system named is BT-549. In words: Cell proliferation assay (CellTiter-Glo). As to conditions: Homo sapiens.
Assay [10] concerns MDA-MB-468 (second source). In words: Cell proliferation assay (CellTiter-Glo). As to conditions: Homo sapiens, MDA-MB-468, 168 h, read-out: 7-day antiproliferative IC50.
In assay [11] the target is GSK3A (Homo sapiens, UniProt P49840). The assay is described as follows: Z’-LYTE enzymatic assay. As to conditions: Z’-LYTE assay at [ATP]=apparent Km; read-out: Biochemical IC50 GSK3A.
The target in assay [12] is T1, MELK (Homo sapiens, UniProt Q14680). The assay is described as follows: KINOMEscan MELK pull-down. It counts as binding. The protocol:
Based on biochemical (KINOMEscan) and cellular (KiNativ) kinase profiling of our in-house library of structurally diverse ATP-competitive kinase inhibitors, we identified several chemotypes that were prioritized for further characterization and development. In particular, we focused on JW-7-25-1 (Figure 1A), a benzonaphthyridinone derivative that inhibited MELK pull-down by 100% (KINOMEscan) at 10 μM.

For assay [13], the target named is mTOR (Homo sapiens, UniProt P42345). In words: Z’-LYTE enzymatic assay. To be noted: Z’-LYTE assay at [ATP]=apparent Km; read-out: Biochemical IC50 mTOR.
The target in assay [14] is CDK7 (Homo sapiens, UniProt P50613). In words: Adapta kinase assay. As to conditions: Adapta assay at [ATP]=apparent Km; read-out: Biochemical IC50 CDK7.
Assay [15] addresses T1, MELK. In words: Z’-LYTE enzymatic assay. It counts as biochemical.
Assay [16] addresses T1, MELK. In words: Inhibitor-induced MELK degradation, immunoblot. To be noted: MDA-MB-468 cells; pretreatment carfilzomib (400 nM) or MLN4924 (1 μM) 4 hours, then MELK inhibitor 4 hours.
[17] abbreviates: MDA-MB-468, 72 h, read-out: 3-day antiproliferative IC50.
Where [18] appears, read: 72 h, read-out: 3-day antiproliferative IC50.
The mark [19] stands for this setting: 168 h, read-out: 7-day antiproliferative IC50.
Setting [20] is: HCC70, 72 h, read-out: 3-day antiproliferative IC50.
[21] abbreviates: HCC70, 168 h, read-out: 7-day antiproliferative IC50.
Where [22] appears, read: MCF7, 72 h, read-out: 3-day antiproliferative IC50.
The mark [23] stands for this setting: BT-549, 72 h, read-out: 3-day antiproliferative IC50.
The mark [24] stands for this setting: BT-549, 168 h, read-out: 7-day antiproliferative IC50.
[25] abbreviates: MDA-MB-468, 168 h, read-out: 7-day antiproliferative IC50.

Read-outs that look alike come from different tables or passages of the source.

T1 sequence (Q14680 whole entry): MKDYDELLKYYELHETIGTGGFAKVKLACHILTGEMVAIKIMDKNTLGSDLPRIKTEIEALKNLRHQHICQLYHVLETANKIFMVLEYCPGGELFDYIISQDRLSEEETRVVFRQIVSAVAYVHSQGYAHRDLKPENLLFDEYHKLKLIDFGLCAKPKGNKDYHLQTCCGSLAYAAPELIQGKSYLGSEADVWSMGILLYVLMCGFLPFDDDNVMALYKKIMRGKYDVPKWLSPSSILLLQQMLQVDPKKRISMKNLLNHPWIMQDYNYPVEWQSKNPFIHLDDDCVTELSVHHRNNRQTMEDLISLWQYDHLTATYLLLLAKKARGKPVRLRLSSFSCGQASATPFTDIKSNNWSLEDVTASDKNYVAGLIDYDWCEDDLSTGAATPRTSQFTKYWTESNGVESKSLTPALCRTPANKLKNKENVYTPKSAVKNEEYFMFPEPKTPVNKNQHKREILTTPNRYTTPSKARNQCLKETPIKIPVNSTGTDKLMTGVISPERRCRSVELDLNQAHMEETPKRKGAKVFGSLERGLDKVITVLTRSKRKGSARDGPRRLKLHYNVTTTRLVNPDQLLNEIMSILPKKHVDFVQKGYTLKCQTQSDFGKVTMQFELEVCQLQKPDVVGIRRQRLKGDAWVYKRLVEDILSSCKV
CDK7, sequence (P50613 whole entry): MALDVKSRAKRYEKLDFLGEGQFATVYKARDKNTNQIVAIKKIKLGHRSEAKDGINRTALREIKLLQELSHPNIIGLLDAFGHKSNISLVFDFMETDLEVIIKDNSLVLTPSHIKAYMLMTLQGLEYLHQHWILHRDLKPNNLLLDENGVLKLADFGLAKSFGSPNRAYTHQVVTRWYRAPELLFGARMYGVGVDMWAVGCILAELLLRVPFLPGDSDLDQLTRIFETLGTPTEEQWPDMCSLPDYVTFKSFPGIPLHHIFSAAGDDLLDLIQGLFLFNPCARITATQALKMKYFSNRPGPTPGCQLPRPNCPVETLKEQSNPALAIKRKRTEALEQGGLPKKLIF
CDK7, sequence (P51946 whole entry partner): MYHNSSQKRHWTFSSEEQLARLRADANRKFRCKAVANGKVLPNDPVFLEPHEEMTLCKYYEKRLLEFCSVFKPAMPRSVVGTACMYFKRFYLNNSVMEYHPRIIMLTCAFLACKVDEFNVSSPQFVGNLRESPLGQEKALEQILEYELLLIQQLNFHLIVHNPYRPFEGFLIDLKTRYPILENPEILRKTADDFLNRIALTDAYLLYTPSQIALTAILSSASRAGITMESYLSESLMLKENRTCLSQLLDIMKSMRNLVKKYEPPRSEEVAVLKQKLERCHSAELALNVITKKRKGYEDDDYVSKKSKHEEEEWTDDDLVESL
CDK7, sequence (P51948 whole entry partner): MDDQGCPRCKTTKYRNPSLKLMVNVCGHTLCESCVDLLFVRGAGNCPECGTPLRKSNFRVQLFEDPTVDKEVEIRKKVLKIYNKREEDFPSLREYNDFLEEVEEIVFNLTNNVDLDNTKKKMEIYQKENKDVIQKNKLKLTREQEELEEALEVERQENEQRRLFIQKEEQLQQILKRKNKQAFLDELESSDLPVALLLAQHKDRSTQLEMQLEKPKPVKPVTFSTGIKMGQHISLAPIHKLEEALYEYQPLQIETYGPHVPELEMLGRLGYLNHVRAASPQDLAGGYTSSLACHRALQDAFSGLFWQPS
GSK3A, sequence (P49840 whole entry): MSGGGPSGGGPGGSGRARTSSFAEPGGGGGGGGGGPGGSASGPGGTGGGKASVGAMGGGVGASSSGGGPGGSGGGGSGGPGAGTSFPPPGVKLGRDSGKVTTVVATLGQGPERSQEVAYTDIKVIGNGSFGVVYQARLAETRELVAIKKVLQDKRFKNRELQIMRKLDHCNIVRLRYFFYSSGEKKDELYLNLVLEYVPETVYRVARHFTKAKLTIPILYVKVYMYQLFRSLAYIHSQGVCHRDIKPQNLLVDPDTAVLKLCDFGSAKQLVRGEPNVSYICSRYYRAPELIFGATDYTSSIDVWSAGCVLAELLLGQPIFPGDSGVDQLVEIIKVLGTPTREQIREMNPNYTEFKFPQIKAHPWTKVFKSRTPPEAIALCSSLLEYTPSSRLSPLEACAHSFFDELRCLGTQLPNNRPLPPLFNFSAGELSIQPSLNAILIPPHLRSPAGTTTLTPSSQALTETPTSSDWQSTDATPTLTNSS

Turning to `CC[C@H](C(=O)N1CCCC[C@H]1C(=O)O[C@H](CCc1ccc(OC)c(OC)c1)c1ccccc1OCC(=O)NCCCCCCCCNc1ccc2c(c1)C(=O)N(C1CCC(=O)NC1=O)C2=O)c1cc(OC)c(OC)c(OC)c1` (stereo partly drawn) [dTAG-47, (2S)-(1R)−3-(3,4-dimethoxyphenyl)−1-(2-(2-((8-((2-(2,6-dioxopiperidin-3-yl)−1,3-dioxoisoindolin-5-yl)amino)octyl)amino)−2-oxoethoxy)phenyl)propyl 1-((S)−2-(3,4,5-trimethoxyphenyl)butanoyl)piperidine-2-carboxylate], in [1], the “growth in 9-day proliferation assay” value was “neither of the FKBP12^F36V-MELK(sg3R) MELK−/− clones exhibited growth impairment”. Besides, in [2], the “duration of sustained degradation of FKBP12^F36V-MELK(sg3R)” value (shortened to “duration”) was “up to 72 hours” and the “time to efficient depletion of FKBP12^F36V-MELK(sg3R)” value (“time to efficient depletion” below) is at most 4 h.
Turning to `CC[C@H](C(=O)N1CCCC[C@H]1C(=O)O[C@H](CCc1ccc(OC)c(OC)c1)c1ccccc1OCC(=O)NCCCCCCCCNc1cccc2c1C(=O)N(C1CCC(=O)NC1=O)C2=O)c1cc(OC)c(OC)c(OC)c1` (stereo partly drawn) [dTAG-36, (2S)-(1R)−3-(3,4-dimethoxyphenyl)−1-(2-(2-((8-((2-(2,6-dioxopiperidin-3-yl)−1,3-dioxoisoindolin-4-yl)amino)octyl)amino)−2-oxoethoxy)phenyl)propyl 1-((S)−2-(3,4,5-trimethoxyphenyl)butanoyl)piperidine-2-carboxylate], in [2], the “duration” value was “up to 72 hours” and the “time to efficient depletion” value is at most 4 h.
`CCC(C(=O)N1CCCCC1C(=O)OC(CCc1ccc(OC)c(OC)c1)c1ccccc1OCC(=O)NCCCCCCOc1cccc2c1C(=O)N(C1CCC(=O)NC1=O)C2=O)c1cc(OC)c(OC)c(OC)c1` (stereo not shown) [dTAG-13]: in assay [2], the “duration” value is “up to 72 hours” and the “time to efficient depletion” value is at most 4 h.
As for `COc1cc(-c2cn[nH]c2)ccc1C(=O)Nc1ccc2c(c1)CCNCC2` [MELK-T1], the IC50 in assay [3] is 18 nM; in [4], over 10000 nM; in [5] (setting [17]), over 10000 nM.
On to `CC1(C)C(=O)N([C@H]2CCc3c(O)cccc32)c2nc(Nc3cccc(CN4CCCC4)c3)ncc21` [MRT199665], for which the half-inhibitory concentration (IC50) was 5890 nM in [6] (setting [18]); 620 nM in assay [6] (setting [19]); 390 nM in assay [7] (setting [20]); 75 nM in [7] (setting [21]); 440 nM in [8] (setting [22]); 4830 nM in assay [4]. The 50% inhibitory concentration (IC50) in [9] (setting [23]) came to 400 nM; in [9] (setting [24]), 310 nM; in assay [5] (setting [17]), 580 nM; in assay [5] (setting [25]), 160 nM; in [10], 910 nM.
For `O=c1ccc2cnc3ccc(-c4ccc(O)cc4)cc3c2n1-c1ccc(N2CCNCC2)c(C(F)(F)F)c1` [JW-7-25-1], the IC50 in assay [11] turned out to be 12.3 nM; in assay [13], 5.5 nM; in [14] it was 63.4 nM; in [15] (Z’-LYTE assay at [ATP]=apparent Km, read-out: Biochemical IC50 MELK) it was 5 nM. The inhibition at 10 µM in assay [12] was 100%.
On to `CC(C)C[C@H](NC(=O)[C@H](CCc1ccccc1)NC(=O)CN1CCOCC1)C(=O)N[C@@H](Cc1ccccc1)C(=O)N[C@@H](CC(C)C)C(=O)[C@@]1(C)CO1` [carfilzomib], for which the “rescue of inhibitor-induced MELK degradation by pretreatment” value in assay [16] was “prevented degradation”.
Still for that read-out and setting: with `NS(=O)(=O)OC[C@@H]1C[C@@H](n2ccc3c(N[C@H]4CCc5ccccc54)ncnc32)C[C@@H]1O` [MLN4924] the entry was “minimal effect”.
For `CN1CCN(c2ccc(-n3cc(-c4ccncc4OCC4CCNCC4)cn3)cc2)CC1` [NVS-MELK8a], the 50% inhibitory concentration (IC50) in assay [6] (setting [18]) is over 10000 nM; in [6] (setting [19]), 4900 nM; in assay [7] (setting [20]), 5990 nM; in [7] (setting [21]), 4170 nM; in assay [8] (setting [22]), 6060 nM; in [8] (MCF7, 168 h, read-out: 7-day antiproliferative IC50) it was 2810 nM. In addition, the IC50 is over 10000 nM in [4]; 8050 nM in [9] (setting [23]); 4980 nM in [9] (setting [24]); 11.9 nM in [15] (Biochemical IC50 MELK, Z’-LYTE assay at [ATP]=apparent Km); 11.9 nM in assay [15] (Note: MELK IC50, note column of Table 3); under 20 nM in assay [15] (Potency (MELK), measured by Z’LYTE biochemical assay, class symbols in Figure 2C). For the same molecule, the IC50 in assay [5] (setting [17]) came to 5410 nM; in assay [5] (setting [25]) it was 2960 nM; in [10], 8400 nM.

A word on the IC50: it is the concentration that gives 50% inhibition. Usually inhibition stands for the share of the control response that was lost under treatment. Low readings indicate a weak effect, high ones a strong effect.
